Laboratory results: paper PMC3621575 (ACS Chemical Biology, 2012)

Assays:
PCSTAIRE2 = settings: primary chronic lymphocytic leukemia cells; cited from earlier work
CRK7 = settings: primary chronic lymphocytic leukemia cells; cited from earlier work
CDK9 = settings: primary chronic lymphocytic leukemia cells; cited from earlier work
T. brucei CRK1 = target: T1, T. brucei CRK1 (Trypanosoma brucei brucei, UniProt P38973); experiment: Kinobead profiling, T. brucei lysate, CRK1; format: binding; settings: T. brucei cell lysate
T1 sequence (P38973 1-301): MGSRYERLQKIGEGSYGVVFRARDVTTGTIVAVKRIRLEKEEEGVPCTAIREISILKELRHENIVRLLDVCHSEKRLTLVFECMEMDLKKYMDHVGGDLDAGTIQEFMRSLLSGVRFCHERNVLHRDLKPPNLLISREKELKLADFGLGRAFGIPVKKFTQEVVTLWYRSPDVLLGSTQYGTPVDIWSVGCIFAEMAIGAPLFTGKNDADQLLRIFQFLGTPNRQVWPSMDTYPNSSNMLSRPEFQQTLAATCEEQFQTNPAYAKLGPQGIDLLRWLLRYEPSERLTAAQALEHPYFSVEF

[1] = tested on: human kinome in primary chronic lymphocytic leukemia cells; settings: cited from earlier work

SMILES: CC(C)(C)c1cnc(CSc2cnc(NC(=O)C3CCNCC3)s2)o1 [BMS-387032]
- kinobead IC50, PCSTAIRE2 (PCSTAIRE2): submicromolar
- kinobead IC50, CRK7 (CRK7): submicromolar
- kinobead IC50, CDK9 (CDK9): submicromolar
- kinobead inhibition of CRK1 (T. brucei CRK1): no inhibition
- observed CDKs inhibited [1]: all of the seven
